How the values were obtained:
[1] = biological target: T1, human CB1 receptor (Homo sapiens, UniProt P21554); test: Study on the human CB1 receptor, [3H]CP55,940 displacement on recombinant membranes; type: binding; conditions: 10 μM test substance; 1 nM [3H]CP55,940; human recombinant cell membranes
T1 construct: purchased Perkin Elmer RBHCB1M
Experimental: V. Functional Study on the Human CB1 Receptor
50 mM TRIS (from Fluka, Cat. No. 93349); 2.5 mM EDTA (from Fluka Cat. No. 03680); 5 mM MgCl2 (from Merck, Cat. No. 1.05833); 0.5 mg/ml BSA (from Sigma Cat. No. A-2153)
The membranes (RBHCB1M, from Perkin Elmer (human recombinant cell membranes)) were supplied in aliquots of 1 ml each in dry ice and stored at −80° C. The protein concentration of the batches was around 6 mg/ml. For the test, in each case 1 ml was thawed rapidly and diluted with 7 ml of incubation buffer (1:8). 20 μl of this dilution were used in the test. This corresponded to a protein content of approx. 15 μg in the batch.
MTP from Costar® of the “U type” (assay MTP; Cat. No. 3794) was used. The pipetting sequence is reproduced in Table 1 below.
After the pipetting operation had ended, a lid was placed on the MTP and the incubation was effected at 25° C. for 90 min.
Subsequently, the samples were removed by suction with the aid of a Brandel cell harvester (model MPXRI-96T) through a GF/B Unifilter MTP (from Packard, Cat. No. 6005177) presoftened with 0.05% PEI. The samples were washed twice with 200 ml of ice-cooled incubation buffer per 96-well MTP. Thereafter, the plate was dried in a drying cabinet +60° C. for 1 h. […] After a wait time of 1 h, the plate was analyzed on a “Trilux” from Wallac.

[2] = biological target: T2, human CB2 receptor (Homo sapiens, UniProt P34972); test: Affinity for cannabinoid receptor CB2, [3H]-CP 55,940 displacement on HEK-293EBNA membranes; conditions: 10 μM test substance; 0.33 nM [3H]-CP 55,940; percent inhibition of specific binding
T2 construct: expressed in transfected cells; host or cells: HEK-293EBNA cells (membranes)
Text: VI. Determination of the Affinity for the Cannabinoid Receptor CB2 (CB2 Receptor):
To determine the affinity of the inventive compounds for the cannabinoid receptor, membranes from human recombinant HEK-293EBNA cells were used, which had been transfected stably with the human CB2 receptor. The radioligand used was tritium-labeled 5-(1,1-dimethylheptyl)-2-(5-hydroxypropyl)cyclohexyl)-1-alpha,2-beta,5-alpha)phenol ([3]H—CP 55,940 with 103.4 Ci/mmol, 1 mCi/ml). The determination was effected in a test buffer composed of 50 mM Tris-HCl, 2.5 mM EDTA, 5 mM MgCl2 and 1.0 mg/ml of fatty acid-free BSA. The test substances were each dissolved in DMSO.
The affinity of the inventive compounds for the CB2 receptor is determined by their ability to displace [3]H—CP 55,940 from CB2 receptors in membranes from HEK-293EBNA cells. To this end, in each case 8 μg of the membranes (20 μl of a solution from membranes in a concentration of 400 μg/ml) are incubated in wells on a microtiter plate with a 0.33 nM solution of ^[3]H-CP […] (120 Ci/mmol) in a total volume of test buffer of 200 μl at 30° C. for 90 minutes.
Subsequently, either the test substances or WIN 55212-2 to determine the unspecific binding, in each case dissolved in DMSO, are added to the wells so as to result in each case in a concentration of the corresponding substances of 10 μM.
Incubation at 30° C. is continued for a further 40 minutes. The binding reaction was ended by rapid filtration through GF/C filter paper which had been treated with 0.05% PEI using a Brandel cell harvester with 96 wells. The filters are washed nine times with 0.5 ml of ice-cooled washing buffer ([…] Tris-HCl, 5 mM MgCl2, 2.5 mM EDTA, 2% BSA, pH 7.4), air-dried and placed in scintillation fluid, and the radioactivity is determined with the aid of a scintillation counter.
The percentage displacement of the radioactive ligand ^[3]H-CP 55,940 from its binding to the CB2 receptor is reported as percent inhibition of the specific binding.

T2 sequence (P34972 whole entry): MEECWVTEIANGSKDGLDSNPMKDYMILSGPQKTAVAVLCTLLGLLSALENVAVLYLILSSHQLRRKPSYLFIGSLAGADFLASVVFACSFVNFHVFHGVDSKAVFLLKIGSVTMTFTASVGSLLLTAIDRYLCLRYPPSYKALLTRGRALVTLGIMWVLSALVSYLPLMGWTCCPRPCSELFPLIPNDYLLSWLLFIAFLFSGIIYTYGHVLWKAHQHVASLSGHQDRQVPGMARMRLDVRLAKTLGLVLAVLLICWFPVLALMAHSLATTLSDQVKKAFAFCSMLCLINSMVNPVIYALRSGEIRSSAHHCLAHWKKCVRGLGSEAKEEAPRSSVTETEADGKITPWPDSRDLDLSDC
T1 sequence (P21554 whole entry): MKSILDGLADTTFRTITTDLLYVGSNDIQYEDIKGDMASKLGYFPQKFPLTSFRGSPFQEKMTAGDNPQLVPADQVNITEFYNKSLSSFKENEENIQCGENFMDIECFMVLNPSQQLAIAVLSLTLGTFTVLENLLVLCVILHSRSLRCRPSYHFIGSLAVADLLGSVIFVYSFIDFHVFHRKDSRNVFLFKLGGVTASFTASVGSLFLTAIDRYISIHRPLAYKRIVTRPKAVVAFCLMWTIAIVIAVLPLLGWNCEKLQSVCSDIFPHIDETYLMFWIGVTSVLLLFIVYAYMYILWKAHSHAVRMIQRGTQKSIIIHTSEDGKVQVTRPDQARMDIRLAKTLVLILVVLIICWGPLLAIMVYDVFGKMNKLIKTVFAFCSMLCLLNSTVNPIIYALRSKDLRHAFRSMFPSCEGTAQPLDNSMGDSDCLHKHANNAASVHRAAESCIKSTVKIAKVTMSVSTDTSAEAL

Compound	inhibition at 10 µM [1] [%]	inhibition at 10 µM [2] [%]
O=C(Nc1ccccc1)OCC1(COC(=O)Nc2ccccc2)CCSc2ccccc2C1=O [Example Compound 2, Phenylcarbamic acid 4-(phenylcarbamoyloxymethyl)-5-oxo-2,3,4,5-tetrahydro-benzo[b]thiepin-4-ylmethyl ester]	42	74.6
O=C(NC1CCCCC1)OCC1(COC(=O)NC2CCCCC2)CCCc2ccccc2C1=O [Example Compound 8, Cyclohexylcarbamic acid 6-(cyclohexylcarbamoyloxymethyl)-5-oxo-6,7,8,9-tetrahydro-5H-benzocyclohepten-6-ylmethyl ester]	47	76.2
